Tests used:
[1] = General clinical observation and body weight of tumor-bearing mice during administration; settings: mouse, in vivo
Method: According to body weights, animals were randomly divided into 6 groups, with 7 animals per group.
Observed animals: All animals
Observation frequency and time: The animals were observed once before each time of administration during the experiment, and administration and observation results were recorded.
Observation content: including, but not limited to, tumor growth, animal mental states, eating and drinking conditions, or the like.
Detected animals: All animals
Detection time: A body weight of an animal was measured and recorded when grouping (namely, before the first administration) (D1), before each subsequent administration, and before euthanasia.
A body weight and relevant information of an animal were measured and recorded if the animal died unexpectedly.

[2] = tested on: Human brain astroblastoma cell line U-87MG; assay: Tumor-suppressing effect on subcutaneously transplanted U-87MG tumors in nude mice (tumor weight, IRTW); assay type: in vivo, BALB/C-nu/nu mice; settings: intraperitoneal injection; for Tumor-suppressing rate (%): IRTW vs model group; for Tumor weight: U-87MG tumor, end of experiment, mean±SD
Method: 4. Laboratory animals • Animal species: BALB/C-nu/nu mice • Animal grade: SPF grade • Gender and quantity:42 females • Animal age at the start of an experiment: 6 weeks old • Animal body weight at the start of an experiment: 18±2 g • Animal source: Vital River Laboratory Animal Technology Co., Ltd.
Cell source and cultivation conditions: Human brain astroblastoma cell line U-87MG: which came from the Cell Resource Center of the Shanghai Institutes for Biological Sciences (SIBS); medium: MEM medium including 1% penicillin-streptomycin sulfate mixed solution (100 ×) and 10% fetal bovine serum (FBS) (from Australia); cultivation conditions: 5% CO2 and 37° C.; and the cell line was frozen by Marine Biomedical Research Institute of Qingdao.
The cell line U-87MG stored in liquid nitrogen was recovered, inoculated in a corresponding medium including 10% FBS, 100 U/mL penicillin, and 100 […] streptomycin, and cultivated in the cell culture incubator at 37° C. and 5% CO2. The cells were passaged every two days.
After the cells were passaged four times, resulting cells were collected through digestion with 0.05% trypsin-EDTA, counted under a microscope, and resuspended with a medium to obtain a cell suspension with 5×10^7 cells/mL; a mouse was routinely disinfected, and 0.2 mL of the cell suspension was subcutaneously inoculated in an axillary region of a right forelimb of the mouse; and a resulting tumor tissue was aseptically taken out, weighed, diluted with a sodium chloride injection according to a mass-to-volume ratio of 1:4, and then ground, then a mouse was routinely disinfected, and 0.2 mL of a resulting suspension was subcutaneously inoculated in an axillary region of a right forelimb of the mouse for passage, where the passage was continuously conducted twice. During this period, the mice were raised normally, and the states and tumor growth conditions of the mice were observed and recorded every week.
When a tumor volume in a tumor-bearing mouse to be passaged was about 1,200 mm 3, a tumor was ground and transplanted by a same method for molding. After the tumor inoculation was completed, a body weight of a mouse was measured, and mice were randomly selected and divided into 6 groups with 7 mice per group. After tumor colonization, the administration was started, which was recorded as Day 1 (D1). […]
After the experiment was completed, tumor tissues of animals that died unexpectedly and surviving animals that were euthanized each were peeled off and weighed, and a tumor weight difference of each group was calculated to further calculate a tumor-suppressing rate (IRTW) according to the following formula: […]
It was required in this scheme that measured and observed data results were manually recorded in appropriate forms or directly acquired by a computer. […]

[3] = 5-Fluorouracil 18 mg/kg, twice a week

| Compound | Body weight of mice during administration [1] | Tumor-suppressing rate (%) [2, 3] | Tumor weight [2, 3] | Tumor-suppressing rate (%) ([2]; TMZ 25 mg/kg, once every day) | Tumor weight ([2]; TMZ 25 mg/kg, once every day) |
| --- | --- | --- | --- | --- | --- |
| O=c1[nH]cc(F)c(=O)[nH]1 [5-Fluorouracil] | reduced at a late stage of administration | 52.7% | 1.3305 ± 0.6525 | – | – |
| Cn1nnc2c(C(N)=O)ncn2c1=O [TMZ, temozolomide] | – | – | – | 99.5% | 0.0134 ± 0.0091 |
